According to patent publication EP0326331B1, “Substituted quinolines and cinnolines” (Dow AgroSciences LLC, priority 1988, dated 1989):
Read-outs that look alike come from different tables or passages of the source.

How the values were obtained:
Format in all cases: in vivo
[1] = system: southern armyworm (Spodopetra eridania Cramer); test: Mite/insect screen, SAW; settings: Spodoptera eridania, foliar, percent mortality, foliar spray on squash, read-out: SAW RESULTS %; for mortality at 200 ppm: rate 200 ppm; for mortality at 400 ppm: rate 400 ppm
Procedure, shortened: (§1)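 Percent mortality was scored after standard exposure periods, following spraying of leaves to runoff (both surfaces, 10 psi, 1 h drying) with water dilutions of compound in emulsifier-containing acetone/alcohol (50:50). Armyworms received excised treated leaves in dishes.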

[2] = system: Pseudoperonospora cubensis (downy mildew); test: Test 1 greenhouse foliar spray screen, downy mildew on squash; settings: for DOWN MDEW: disease control rating, foliar spray on squash, 400 ppm (+++ at 100 ppm); for pest or weed control at 400 ppm: Pseudoperonospora cubensis, foliar, Test 1, foliar spray on squash, disease control rating at 400 ppm / 100 ppm, read-out: DOWN MDEW
[3] = system: Botrytis cinerea (gray mold); test: Test 1 greenhouse foliar spray screen, gray mold on grape berries; settings: for GRAY MOLD: disease control rating, spray on grape berries, 400 ppm (+++ at 100 ppm); for pest or weed control at 400 ppm: Botrytis cinerea, foliar, Test 1, spray on grape berries, disease control rating at 400 ppm / 100 ppm
[4] = system: Cercospora beticola (leaf spot); test: Test 1 greenhouse foliar spray screen, leaf spot on sugar beet; settings: for LEAF SPOT: disease control rating, foliar spray on sugar beet, 400 ppm (+++ at 100 ppm); for pest or weed control at 400 ppm: Cercospora beticola, Test 1, foliar spray on sugar beet, disease control rating at 400 ppm / 100 ppm
corn rootworm = test: Mite/insect screen, CRW; settings: read-out: CRW RESULTS %; for mortality at 24 ppm: CRW rate 24.00 ppm
Procedure, shortened: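 Corn rootworm mortality (%) was evaluated following standard exposure times. Test material was emulsified by dissolution in acetone/alcohol (1:1) containing sulfonate/nonionic emulsifier blends TOXIMUL R (23 g/L) and TOXIMUL S (13 g/L), and water-diluted to the indicated doses.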

[5] = system: Puccinia recondita tritici (leaf rust); test: Test 1 greenhouse foliar spray screen, leaf rust on wheat; settings: for LEAF RUST: disease control rating, foliar spray on wheat, 400 ppm (+++ at 100 ppm); for pest or weed control at 400 ppm: Puccinia recondita, foliar, Test 1, foliar spray on wheat, disease control rating at 400 ppm / 100 ppm
[6] = system: melon aphids (Aphis gossypii Glover); test: Mite/insect screen, MA; settings: Aphis gossypii, foliar, percent mortality, foliar spray on squash, read-out: MA RESULTS %; for mortality at 200 ppm: rate 200 ppm; for mortality at 400 ppm: rate 400 ppm
Procedure, shortened: as §1

[7] = system: Venturia inaequalis (apple scab); test: Test 1 greenhouse foliar spray screen, apple scab on apple seedling; settings: for APPL SCAB: disease control rating, foliar spray on apple seedling, 400 ppm (+++ at 100 ppm); for pest or weed control at 400 ppm: Venturia inaequalis, Test 1, foliar spray on apple seedling, disease control rating at 400 ppm / 100 ppm, read-out: APPL SCAB
[8] = system: Erysiphe graminis tritici (powdery mildew); test: Test 1 greenhouse foliar spray screen, powdery mildew on wheat; settings: for POWD MDEW: disease control rating, foliar spray on wheat, 400 ppm (+++ at 100 ppm); for pest or weed control at 400 ppm: Blumeria graminis, foliar, Test 1, foliar spray on wheat, disease control rating at 400 ppm / 100 ppm, read-out: POWD MDEW
[9] = system: Pyricularia oryzae (rice blast); test: whole plant or invertebrate; settings: for RICE BLAST: disease control rating, foliar spray on rice, 400 ppm (+++ at 100 ppm); for pest or weed control at 400 ppm: Pyricularia oryzae, foliar, read-out: RICE BLAST, Test 1, foliar spray on rice, disease control rating at 400 ppm / 100 ppm
[10] = system: Septoria tritici (leaf blotch); test: Test 1 greenhouse foliar spray screen, leaf blotch on wheat; settings: for LEAF BLOT: disease control rating, foliar spray on wheat, 400 ppm (+++ at 100 ppm); for pest or weed control at 400 ppm: Zymoseptoria tritici, Test 1, foliar spray on wheat, disease control rating at 400 ppm / 100 ppm, read-out: LEAF BLOT
[11] = system: Twospotted spider mites (Tetranychus urticae Koch); test: Mite/insect screen, SM; settings: Tetranychus urticae, foliar, percent mortality, foliar spray on squash, read-out: SM RESULTS %; for mortality at 200 ppm: rate 200 ppm; for mortality at 400 ppm: rate 400 ppm
Procedure, shortened: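 Read-out: percent mortality after standard exposure periods. Test solutions were water dilutions of compound dissolved in acetone/alcohol (50:50) with emulsifier blends; leaves were sprayed to runoff on both surfaces and air-dried for one hour before exposure.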

[12] = percent mortality, CRW rate 12.00 ppm

## Fc1cccc2c(NCCc3ccsc3)ccnc12 [Example 175, 8-fluoro-N-[2-(3-thienyl)ethyl]-4-quinolinamine]
[1]
  mortality at 200 ppm: 0%
[2]
  DOWN MDEW: +++ (90-100% control at 100 ppm)
[3]
  GRAY MOLD: - (0-19% control at 400 ppm)
[4]
  LEAF SPOT: - (0-19% control at 400 ppm)
Corn rootworm; [12]
  mortality at 12 ppm: 0%
[5]
  LEAF RUST: +++ (90-100% control at 100 ppm)
[6]
  mortality at 200 ppm: 0%
[7]
  APPL SCAB: - (0-19% control at 400 ppm)
[8]
  POWD MDEW: + (20-89% control at 400 ppm)
[9]
  RICE BLAST: + (20-89% control at 400 ppm)
[10]
  LEAF BLOT: + (20-89% control at 400 ppm)
[11]
  mortality at 200 ppm: 0%

## Fc1cccc2c(NCCc3c[nH]c4ccccc34)ccnc12 [Example 176, 8-fluoro-N-[2-(1H-indol-3-yl)ethyl]-4-quinolinamine]
[1]
  mortality at 200 ppm: 0%
[2]
  DOWN MDEW: ++ (90-100% control at 400 ppm)
[3]
  GRAY MOLD: - (0-19% control at 400 ppm)
[4]
  LEAF SPOT: + (20-89% control at 400 ppm)
Corn rootworm; [12]
  mortality at 12 ppm: 0%
[5]
  LEAF RUST: + (20-89% control at 400 ppm)
[6]
  mortality at 200 ppm: 0%
[7]
  APPL SCAB: - (0-19% control at 400 ppm)
[8]
  POWD MDEW: + (20-89% control at 400 ppm)
[9]
  RICE BLAST: + (20-89% control at 400 ppm)
[10]
  LEAF BLOT: - (0-19% control at 400 ppm)
[11]
  mortality at 200 ppm: 0%

## CC(=O)N(CCC1=CCCCC1)c1ccnc2c(C)cc(C)cc12 [Example 179, N-[2-(1-cyclohexenyl)ethyl]-N-(6,8-dimethyl-4-quinolinyl)acetamide]
[1]
  mortality at 200 ppm: 0%
  mortality at 400 ppm: 0%
[2]
  DOWN MDEW: ++ (90-100% control at 400 ppm)
[3]
  GRAY MOLD: - (0-19% control at 400 ppm)
[4]
  LEAF SPOT: + (20-89% control at 400 ppm)
Corn rootworm; [12]
  mortality at 12 ppm: 0%
Corn rootworm; percent mortality
  mortality at 24 ppm: 0%
[5]
  LEAF RUST: - (0-19% control at 400 ppm)
[6]
  mortality at 200 ppm: 0%
  mortality at 400 ppm: 0%
[7]
  APPL SCAB: + (20-89% control at 400 ppm)
[8]
  POWD MDEW: - (0-19% control at 400 ppm)
[9]
  RICE BLAST: - (0-19% control at 400 ppm)
[10]
  LEAF BLOT: - (0-19% control at 400 ppm)
[11]
  mortality at 200 ppm: 0%
  mortality at 400 ppm: 0%

## Fc1cccc2c(NCCc3ccccn3)ccnc12 [Example 180, 8-fluoro-N-[2-(2-pyridinyl)ethyl]-4-quinolinamine]
[1]
  mortality at 200 ppm: 0%
  mortality at 400 ppm: 0%
[2]
  DOWN MDEW: ++ (90-100% control at 400 ppm)
[3]
  GRAY MOLD: - (0-19% control at 400 ppm)
[4]
  LEAF SPOT: + (20-89% control at 400 ppm)
Corn rootworm; [12]
  mortality at 12 ppm: 0%
Corn rootworm; percent mortality
  mortality at 24 ppm: 0%
[5]
  LEAF RUST: - (0-19% control at 400 ppm)
[6]
  mortality at 200 ppm: 0%
  mortality at 400 ppm: 0%
[7]
  APPL SCAB: - (0-19% control at 400 ppm)
[8]
  POWD MDEW: ++ (90-100% control at 400 ppm)
[9]
  RICE BLAST: + (20-89% control at 400 ppm)
[10]
  LEAF BLOT: + (20-89% control at 400 ppm)
[11]
  mortality at 200 ppm: 0%
  mortality at 400 ppm: 0%

## Fc1cccc2c(NCCc3ccccc3)cc(NCCc3ccccc3)nc12 [Example 183, 8-fluoro-N,N'-bis(2-phenylethyl)-2,4-quinolinediamine]
[1]
  mortality at 200 ppm: 0%
[2]
  DOWN MDEW: +++ (90-100% control at 100 ppm)
[3]
  GRAY MOLD: - (0-19% control at 400 ppm)
[4]
  LEAF SPOT: + (20-89% control at 400 ppm)
Corn rootworm; [12]
  mortality at 12 ppm: 0%
[5]
  LEAF RUST: ++ (90-100% control at 400 ppm)
[6]
  mortality at 200 ppm: 0%
[7]
  APPL SCAB: + (20-89% control at 400 ppm)
[8]
  POWD MDEW: - (0-19% control at 400 ppm)
[9]
  RICE BLAST: ++ (90-100% control at 400 ppm)
[10]
  LEAF BLOT: - (0-19% control at 400 ppm)
[11]
  mortality at 200 ppm: 0%

## CC(CNc1cc(NCC(C)c2ccccc2)c2ccccc2n1)c1ccccc1 (stereo not shown) [Example 184, N,N'-bis(2-phenylpropyl)-2,4-quinolinediamine]
[1]
  mortality at 200 ppm: 0%
[2]
  DOWN MDEW: ++ (90-100% control at 400 ppm)
[3]
  GRAY MOLD: - (0-19% control at 400 ppm)
[4]
  LEAF SPOT: - (0-19% control at 400 ppm)
Corn rootworm; [12]
  mortality at 12 ppm: 0%
[5]
  LEAF RUST: ++ (90-100% control at 400 ppm)
[6]
  mortality at 200 ppm: 0%
[7]
  APPL SCAB: - (0-19% control at 400 ppm)
[8]
  POWD MDEW: - (0-19% control at 400 ppm)
[9]
  RICE BLAST: + (20-89% control at 400 ppm)
[10]
  LEAF BLOT: - (0-19% control at 400 ppm)
[11]
  mortality at 200 ppm: 0%

## Clc1ccc(CCNc2ccc3c(NCCc4ccc(Cl)cc4)ccnc3c2)cc1 [Example 186, N,N'-bis[2-(4-chlorophenyl)ethyl]-4,7-quinolinediamine]
[1]
  mortality at 200 ppm: 0%
  mortality at 400 ppm: 0%
[2]
  DOWN MDEW: +++ (90-100% control at 100 ppm)
[3]
  GRAY MOLD: - (0-19% control at 400 ppm)
[4]
  LEAF SPOT: + (20-89% control at 400 ppm)
Corn rootworm; [12]
  mortality at 12 ppm: 0%
Corn rootworm; percent mortality
  mortality at 24 ppm: 0%
[5]
  LEAF RUST: + (20-89% control at 400 ppm)
[6]
  mortality at 200 ppm: 0%
  mortality at 400 ppm: 0%
[7]
  APPL SCAB: - (0-19% control at 400 ppm)
[8]
  POWD MDEW: - (0-19% control at 400 ppm)
[9]
  RICE BLAST: - (0-19% control at 400 ppm)
[10]
  LEAF BLOT: + (20-89% control at 400 ppm)
[11]
  mortality at 200 ppm: 0%
  mortality at 400 ppm: 0%

## COc1ccc(CCNc2ccc3c(NCCc4ccc(OC)cc4)ccnc3c2)cc1 [Example 187, N,N'-bis[2-(4-methoxyphenyl)ethyl]-4,7-quinolinediamine]
[1]
  mortality at 200 ppm: 0%
  mortality at 400 ppm: 0%
[2]
  DOWN MDEW: +++ (90-100% control at 100 ppm)
[3]
  GRAY MOLD: - (0-19% control at 400 ppm)
[4]
  LEAF SPOT: - (0-19% control at 400 ppm)
Corn rootworm; [12]
  mortality at 12 ppm: 0%
Corn rootworm; percent mortality
  mortality at 24 ppm: 0%
[5]
  LEAF RUST: + (20-89% control at 400 ppm)
[6]
  mortality at 200 ppm: 0%
  mortality at 400 ppm: 0%
[7]
  APPL SCAB: - (0-19% control at 400 ppm)
[8]
  POWD MDEW: - (0-19% control at 400 ppm)
[9]
  RICE BLAST: + (20-89% control at 400 ppm)
[10]
  LEAF BLOT: - (0-19% control at 400 ppm)
[11]
  mortality at 200 ppm: 0%
  mortality at 400 ppm: 0%

## c1ccc(CCNc2ccnc3c(NCCc4ccccc4)cccc23)cc1 [Example 189, N,N'-bis(2-phenylethyl)-4,8-quinolinediamine]
[1]
  mortality at 200 ppm: 0%
[2]
  pest or weed control at 400 ppm: 20 to 89%
[3]
  pest or weed control at 400 ppm: 0 to 19%
[4]
  pest or weed control at 400 ppm: 0 to 19%
Corn rootworm; [12]
  mortality at 12 ppm: 0%
[5]
  pest or weed control at 400 ppm: 20 to 89%
[6]
  mortality at 200 ppm: 0%
[7]
  pest or weed control at 400 ppm: 0 to 19%
[8]
  pest or weed control at 400 ppm: 0 to 19%
[9]
  pest or weed control at 400 ppm: 20 to 89%
[10]
  pest or weed control at 400 ppm: 0 to 19%
[11]
  mortality at 200 ppm: 0%

## Fc1cccc2c(NCCc3ccc(Cl)cc3Cl)cc(NCCc3ccc(Cl)cc3Cl)nc12 [Example 190, N,N'-bis[2-(2,4-dichlorophenyl)ethyl]-8-fluoro-2,4-quinolinediamine]
[1]
  mortality at 200 ppm: 0%
[2]
  pest or weed control at 400 ppm: 0 to 19%
[3]
  pest or weed control at 400 ppm: 0 to 19%
[4]
  pest or weed control at 400 ppm: 0 to 19%
Corn rootworm
  mortality at 12 ppm: 0%
[5]
  pest or weed control at 400 ppm: 90 to 100%
[6]
  mortality at 200 ppm: 0%
[7]
  pest or weed control at 400 ppm: 0 to 19%
[8]
  pest or weed control at 400 ppm: 0 to 19%
[9]
  pest or weed control at 400 ppm: 20 to 89%
[10]
  pest or weed control at 400 ppm: 0 to 19%
[11]
  mortality at 200 ppm: 0%
